This passage reports IC50 results from patent US20260325533A1, “CDK INHIBITOR COMPOUNDS” (ALEKSIA THERAPEUTICS, INC., priority 2023, published 2026).

SMILES strings stand for the structures. Like-named read-outs stand apart in the source and are kept apart here.

Type in all cases: biochemical
One assay addresses CDK6/CCND1 (Homo sapiens, UniProt Q00534). Nature of the assay: CDK6 homogeneous time-resolved fluorescence (HTRF) kinase assay. As to conditions: CDK6/CCND. Here is the method: (§1) A CDK homogeneous time-resolved fluorescence (HTRF) assay was used to assess the potency of the compounds described herein.
(§2) To an untreated 384-well microtiter plate (ProxiPlate) was added 100 nL 100×test compound in DMSO and 5 μL 2×CDK enzyme in assay buffer (50 mM HEPES, 1 mM EGTA, 10 mM MgCl2, 0.01% Tween 20, 2 mM DTT). The plate was centrifuged at 800 RPM for 1 min then incubated for 20 min at 23 °C. 2.5 μL per well of 4×ATP and 2.5 μL 4×ULight™-eIF4E-binding protein 1 (Thr37/46) Peptide substrate were added to all wells. After addition, the plates were centrifuged at 800 RPM for 1 min. The plates were incubated at 23 °C for 60 min. 5 μL per well 4×EDTA solution were added to each well to stop the reaction. 5 μL 4×LANCE Ultra Europium-anti-phospho-eIF4E-binding protein 1 (Thr37/46) antibody were added to each well and the plate was centrifuged for 1 min at 800 RPM. The plate was incubated for 60 min at 23 °C. Fluorescence was read at 340 nm excitation and 665 nm emission on an EnVision 2105 fluorescence reader. The final concentrations of reagents in the activity assay were 1 nM CDK6/CCND1, 1 mM ATP, 50 nM ULight™-eIF4E-binding protein 1 (Thr37/46) Peptide substrate, 1% DMSO, 10 mM EDTA, and 2 nM LANCE Ultra Europium-anti-phospho-eIF4E-binding protein 1 (Thr37/46).
(§3) Dose-response titrations were conducted by using an 11-point, half-logarithmic serial dilution scheme typically starting at 10 μM. Signals were reported as fluorescence units at 665 nm or the ratio of fluorescence units at 665 nm/fluorescence units at 615 nm. Signals are referred to below as “Lance signals”.
(§4) Using this assay, the IC50 values of example compounds were determined. Table 3 illustrates the IC50 for various Example compounds of Formula IA. Table 4 illustrates the IC50 for various other Example compounds of Formula I. ND=not determined.
In general terms: TR-FRET usually uses a lanthanide donor and a delayed reading to cut background.

The target of a further assay is CDK4/CCND3 (Homo sapiens, UniProt P11802). Nature of the assay: CDK4 homogeneous time-resolved fluorescence (HTRF) kinase assay. As to conditions: CDK4/CCND. As to the method: as §1
Sequence of CDK4/CCND3 (P11802 whole entry): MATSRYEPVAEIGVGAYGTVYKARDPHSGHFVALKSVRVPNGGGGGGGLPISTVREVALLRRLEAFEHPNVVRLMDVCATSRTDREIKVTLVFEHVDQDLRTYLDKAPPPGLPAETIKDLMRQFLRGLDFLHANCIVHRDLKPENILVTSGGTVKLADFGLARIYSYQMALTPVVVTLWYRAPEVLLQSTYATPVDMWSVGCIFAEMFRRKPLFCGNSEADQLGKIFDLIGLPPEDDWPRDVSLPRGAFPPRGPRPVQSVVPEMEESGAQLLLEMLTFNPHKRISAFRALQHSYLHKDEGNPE
Sequence of CDK4/CCND3 (P30281 whole entry partner): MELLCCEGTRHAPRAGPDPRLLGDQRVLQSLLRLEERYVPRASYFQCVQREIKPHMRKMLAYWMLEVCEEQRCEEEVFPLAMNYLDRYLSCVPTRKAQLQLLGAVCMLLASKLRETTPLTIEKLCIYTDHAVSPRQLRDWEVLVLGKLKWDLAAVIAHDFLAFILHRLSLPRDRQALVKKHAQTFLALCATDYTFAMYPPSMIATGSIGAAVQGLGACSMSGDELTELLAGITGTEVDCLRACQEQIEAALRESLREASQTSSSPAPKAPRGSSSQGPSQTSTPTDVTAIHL
as §2, with “were 1.5” for “were 1”, “nM CDK4/CCND3,” for “nM CDK6/CCND1,”
as §3, §4

The next assay deals with CDK1/CCNB1 (Homo sapiens, UniProt P06493). Kind of assay: CDK1 homogeneous time-resolved fluorescence (HTRF) kinase assay. As to conditions: CDK1/CCNB. The method in brief: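 0.5 nM CDK1/CCNB1 was preincubated 20 min at 23 °C with compound in HEPES pH-unspecified buffer (MgCl2, EGTA, DTT, Tween 20), then reacted 60 min with 1 mM ATP and 50 nM ULight-4E-BP1 (Thr37/46) peptide. EDTA-stopped reactions were detected with 2 nM Eu-anti-phospho antibody; IC50 from 11-point half-log titrations.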
Sequence of CDK1/CCNB1 (P06493 whole entry): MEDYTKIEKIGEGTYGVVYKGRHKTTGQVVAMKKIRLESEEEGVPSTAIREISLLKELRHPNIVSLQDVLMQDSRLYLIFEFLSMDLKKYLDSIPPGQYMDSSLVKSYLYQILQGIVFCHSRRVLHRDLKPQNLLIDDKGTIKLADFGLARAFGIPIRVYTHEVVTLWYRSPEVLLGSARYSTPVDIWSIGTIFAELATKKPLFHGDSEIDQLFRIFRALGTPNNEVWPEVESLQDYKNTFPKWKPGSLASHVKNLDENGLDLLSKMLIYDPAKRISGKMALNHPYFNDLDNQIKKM
Sequence of CDK1/CCNB1 (P14635 whole entry partner): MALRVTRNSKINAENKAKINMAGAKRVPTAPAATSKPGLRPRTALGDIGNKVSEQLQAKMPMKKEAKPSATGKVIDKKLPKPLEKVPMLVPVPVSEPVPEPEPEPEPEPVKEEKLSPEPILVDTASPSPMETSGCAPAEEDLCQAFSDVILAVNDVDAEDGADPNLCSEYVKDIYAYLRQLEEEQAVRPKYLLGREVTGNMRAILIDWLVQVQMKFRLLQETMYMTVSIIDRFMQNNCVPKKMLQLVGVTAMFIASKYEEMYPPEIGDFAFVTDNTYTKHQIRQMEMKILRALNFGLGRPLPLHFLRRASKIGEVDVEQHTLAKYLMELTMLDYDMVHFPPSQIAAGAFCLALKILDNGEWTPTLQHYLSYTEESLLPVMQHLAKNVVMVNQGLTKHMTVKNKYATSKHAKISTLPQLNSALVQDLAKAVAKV

In another assay the target is CDK2/CCNE1 (Homo sapiens, UniProt P24941). Nature of the assay: CDK2 homogeneous time-resolved fluorescence (HTRF) kinase assay. As to conditions: CDK2/CCNE. The method in brief:
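Compounds were titrated 11-point, half-log from typically 10 μM against 3 nM CDK2/cyclin E1 at 1 mM ATP, with a 20 min enzyme preincubation. Phosphorylation of 50 nM ULight-4E-BP1 peptide over 60 min at 23 °C was detected by europium anti-phospho antibody TR-FRET.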

[1] abbreviates: x = IC50 25-250 nM, read-out: CDK4/CCND IC50 (25-250 nM).
Where [2] appears, read: x = IC50 25-250 nM, read-out: CDK1/CCNB IC50 (25-250 nM).
Where [3] appears, read: 25-250 nM marked x, read-out: CDK6/CCND IC50 25-250 nM.
[4] abbreviates: <25 nM, read-out: CDK4/CCND IC50 <25 nM.
[5] abbreviates: >250 nM marked x, read-out: CDK1/CCNB IC50 >250 nM.
Setting [6] is: 25-250 nM marked x, read-out: CDK4/CCND IC50 25-250 nM.
[7] abbreviates: 25-250 nM marked x, read-out: CDK1/CCNB IC50 25-250 nM.
The mark [8] stands for this setting: x = IC50 <25 nM, read-out: CDK2/CCNE IC50 (<25 nM).
Where [9] appears, read: x = IC50 >250 nM, read-out: CDK6/CCND IC50 (>250 nM column).
Where [10] appears, read: x = IC50 >250 nM, read-out: CDK4/CCND IC50 (>250 nM column).

Sequence of CDK6/CCND1 (Q00534 whole entry): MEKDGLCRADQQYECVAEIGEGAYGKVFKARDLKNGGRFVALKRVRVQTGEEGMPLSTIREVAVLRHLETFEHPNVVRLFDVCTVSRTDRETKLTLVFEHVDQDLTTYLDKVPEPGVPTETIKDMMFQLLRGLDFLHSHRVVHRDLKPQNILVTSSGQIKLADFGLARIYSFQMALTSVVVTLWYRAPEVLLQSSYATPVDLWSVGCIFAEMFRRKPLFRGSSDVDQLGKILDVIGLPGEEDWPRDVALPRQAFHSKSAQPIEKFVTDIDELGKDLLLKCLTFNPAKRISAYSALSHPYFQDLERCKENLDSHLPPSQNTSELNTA
Sequence of CDK6/CCND1 (P24385 whole entry partner): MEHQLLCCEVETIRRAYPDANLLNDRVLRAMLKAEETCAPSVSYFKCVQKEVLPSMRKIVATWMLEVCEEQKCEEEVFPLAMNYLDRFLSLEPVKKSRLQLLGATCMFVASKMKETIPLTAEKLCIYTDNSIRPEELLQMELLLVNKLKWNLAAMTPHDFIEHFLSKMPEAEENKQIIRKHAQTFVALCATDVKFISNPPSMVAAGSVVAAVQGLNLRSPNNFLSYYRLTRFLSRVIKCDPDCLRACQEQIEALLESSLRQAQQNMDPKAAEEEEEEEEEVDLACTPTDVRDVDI

Take `CCS(=N)(=O)c1ccc(Nc2cc3c(C#Cc4ccc5c(c4)NC(=O)C54CC4)nccc3cn2)cc1` (racemic) [Ex 376, 6'-((7-((4-(ethylsulfonimidoyl)phenyl)amino)-2,6-naphthyridin-1-yl)ethynyl)spiro[cyclopropane-1,3'-indolin]-2'-one]: the IC50 at CDK6/CCND1 (x = IC50 25-250 nM, read-out: CDK6/CCND IC50 (25-250 nM)) fell in the range of 25 to 250 nM; on CDK4/CCND3 (setting [1]) it was 25 to 250 nM; at CDK1/CCNB1 (setting [2]), 25 to 250 nM.
Turning to `CNC(=O)C1CCCN(c2nccc3cnc(NC4CCN(S(C)(=O)=O)CC4)cc23)C1` (single isomer, unassigned) [Ex 33, N-methyl-1-(7-((1-(methylsulfonyl)piperidin-4-yl)amino)-2,6-naphthyridin-1-yl)piperidine-3-carboxamide], the IC50 at CDK6/CCND1 (setting [3]) was 25 to 250 nM; on CDK4/CCND3 (setting [4]), less than 25 nM; at CDK1/CCNB1 (setting [5]) it was greater than 250 nM.
Turning to `CS(=O)(=O)N1CCC(Nc2cc3c(N4CCC(C#N)C4)nccc3cn2)CC1` (single isomer, unassigned) [Ex 261, 1-(7-((1-(methylsulfonyl)piperidin-4-yl)amino)-2,6-naphthyridin-1-yl)pyrrolidine-3-carbonitrile], the results for the IC50 at CDK6/CCND1 (setting [3]), at CDK4/CCND3 (setting [6]) and at CDK1/CCNB1 (setting [5]) were 25 to 250 nM, 25 to 250 nM and greater than 250 nM, respectively.
As for `CCS(=N)(=O)c1ccc(Nc2cc3c(C#Cc4ccc5c(c4)NC(=O)C54CC4)nccc3cn2)c(OC)c1` (single isomer, unassigned) [Ex 290, 6'-((7-((4-(ethylsulfonimidoyl)-2-methoxyphenyl)amino)-2,6-naphthyridin-1-yl)ethynyl)spiro[cyclopropane-1,3'-indolin]-2'-one], the IC50 at CDK6/CCND1 (setting [3]), at CDK4/CCND3 (setting [6]) and at CDK1/CCNB1 (setting [7]) was 25 to 250 nM throughout.
As for `CC(C)S(=N)(=O)c1ccc(Nc2cc3c(C#Cc4ccc5c(c4)NC(=O)C5(C)CO)nccc3cn2)cc1` (single isomer, unassigned) [Ex 329, 3-(hydroxymethyl)-3-methyl-6-((7-((4-(propan-2-ylsulfonimidoyl)phenyl)amino)-2,6-naphthyridin-1-yl)ethynyl)indolin-2-one], the IC50 on CDK6/CCND1 (setting [3]) was 25 to 250 nM; on CDK4/CCND3 (setting [4]) it was less than 25 nM.
For the compound `Cc1cc(S(C)(=N)=O)ccc1Nc1cc2c(C#Cc3ccc4c(c3)NC(=O)C43CCC3)nccc2cn1` (single isomer, unassigned) [Ex 333, 6'-((7-((2-methyl-4-(S-methylsulfonimidoyl)phenyl)amino)-2,6-naphthyridin-1-yl)ethynyl)spiro[cyclobutane-1,3'-indolin]-2'-one], the IC50 on CDK4/CCND3 (setting [6]) and at CDK1/CCNB1 (setting [7]) was 25 to 250 nM throughout.
On to `Cc1cc2c(cc1C#Cc1nccc3cnc(Nc4ccc(S(=N)(=O)C(C)C)cc4)cc13)NC(=O)C2(C)C` (single isomer, unassigned) [Ex 343, 3,3,5-trimethyl-6-((7-((4-(propan-2-ylsulfonimidoyl)phenyl)amino)-2,6-naphthyridin-1-yl)ethynyl)indolin-2-one], for which the figures for the IC50 at CDK2/CCNE1 (setting [8]), at CDK4/CCND3 (setting [1]) and at CDK1/CCNB1 (setting [2]) were less than 25 nM, 25 to 250 nM and 25 to 250 nM, respectively.
`N=S(=O)(c1ccc(Nc2cc3c(C#Cc4ccc5c(c4)NC(=O)C54CC4)nccc3cn2)cc1)C1CCC1` (single isomer, unassigned) [Ex 353, 6'-((7-((4-(cyclobutanesulfonimidoyl)phenyl)amino)-2,6-naphthyridin-1-yl)ethynyl)spiro[cyclopropane-1,3'-indolin]-2'-one]: the IC50 at CDK4/CCND3 (setting [1]) fell in the range of 25 to 250 nM.
`CC(C)S(=N)(=O)c1ccc(Nc2cc3c(C#Cc4ccc5c(c4)NC(=O)C54CCC4)nccc3cn2)cc1` (single isomer, unassigned) [Ex 384, 6'-((7-((4-(propan-2-ylsulfonimidoyl)phenyl)amino)-2,6-naphthyridin-1-yl)ethynyl)spiro[cyclobutane-1,3'-indolin]-2'-one]: the IC50 on CDK6/CCND1 (setting [9]) and at CDK4/CCND3 (setting [10]) was greater than 250 nM each time.
In the case of `CC1(C)C(=O)Nc2cc(C#Cc3nccc4cnc(Nc5ccc(S(=N)(=O)C6CCC6)cc5)cc34)ccc21` (single isomer, unassigned) [Ex 454, 6-((7-((4-(cyclobutanesulfonimidoyl)phenyl)amino)-2,6-naphthyridin-1-yl)ethynyl)-3,3-dimethylindolin-2-one], the IC50 at CDK4/CCND3 (x = IC50 <25 nM, read-out: CDK4/CCND IC50 (<25 nM)) was less than 25 nM; on CDK1/CCNB1 (setting [2]), 25 to 250 nM.
Take `CCC1(CC)C(=O)Nc2cc(C#Cc3nccc4cnc(Nc5ccc(S(=N)(=O)C6CCC6)cc5)cc34)ccc21` (single isomer, unassigned) [Example 413, 6-((7-((4-(cyclobutanesulfonimidoyl)phenyl)amino)-2,6-naphthyridin-1-yl)ethynyl)-3,3-diethylindolin-2-one]: the IC50 on CDK4/CCND3 (setting [10]) is greater than 250 nM.
On to `CS(=O)(=O)N1CCC(Nc2cc3c(-c4ccc(N5CCOCC5)cc4)nccc3cn2)CC1` [Ex 65, N-(1-(methylsulfonyl)piperidin-4-yl)-5-(4-morpholinophenyl)-2,6-naphthyridin-3-amine], for which the IC50 on CDK2/CCNE1 (25-250 nM marked x, read-out: CDK2/CCNE IC50 25-250 nM) lay in the range of 25 to 250 nM; at CDK6/CCND1 (setting [3]), 25 to 250 nM; at CDK4/CCND3 (setting [6]), 25 to 250 nM.
Take `CC1(C)C(=O)Nc2cc(C#Cc3nccc4cnc(Nc5ccc(S(C)(=O)=O)cc5F)cc34)ccc21` [Ex 438, 6-((7-((2-fluoro-4-(methylsulfonyl)phenyl)amino)-2,6-naphthyridin-1-yl)ethynyl)-3,3-dimethylindolin-2-one]: the IC50 at CDK2/CCNE1 (setting [8]) is less than 25 nM; on CDK6/CCND1 (setting [9]), greater than 250 nM; at CDK4/CCND3 (setting [10]), greater than 250 nM.
With `CC(=O)NCCn1cc2c(C)c(-c3nccc4cnc(Nc5ccc(S(C)(=O)=O)cc5)cc34)ccc2n1` [Ex 632, N-(2-(4-methyl-5-(7-((4-(methylsulfonyl)phenyl)amino)-2,6-naphthyridin-1-yl)-2H-indazol-2-yl)ethyl)acetamide], the IC50 at CDK2/CCNE1 (x = IC50 25-250 nM, read-out: CDK2/CCNE IC50 (25-250 nM)) is 25 to 250 nM; on CDK6/CCND1 (setting [9]), greater than 250 nM; at CDK4/CCND3 (setting [10]), greater than 250 nM.
